In the experiment the test system is OBX mice. Description: Tail-suspension test and forced swim test in OBX mice (depression model). The conditions noted are these: single oral dose 1 mg/kg, analyzed after 1 hour. It counts as in vivo. Here is the method: OBX mice were used as a depression model to determine the effect of TP-014 (chronic oral treatment for 2 weeks (1 mg/kg)) to ameliorate a depression-like symptom. OBX mice are reported to show a decline in cognitive function, but have originally been established as a depression model. Depression analysis was done by tail-suspension test and forced swim test. In the tail-suspension test, mice are hung upside-down by their tail. If the hung mice are affected by depression, they show a longer immobility time. The immobility time of normal mice is shorter since they move actively when hung. In the forced swim test, mice are forced to swim in a beaker filled with water. Depression mice neither swim nor move (just float). The time (immobility time(s)) for which mice stay still in such a way is measured.
The same model mice were orally treated with a single dose of each of the test compounds (1 mg/kg), and analyzed after 1 hour by tail-suspension test and forced swim test. The results are shown in FIGS. 22-1 (tail-suspension test) and 22-2 (forced swim test).

As for `CC(C)(C)C(=O)N[C@@H](c1ccccc1)[C@H]1[C@H]2C[C@@H]3C[C@](Cl)(C2)C[C@@]1(O)C3` [TP-083, N—((R)-((1S,2R,3S,5S,7S)-5-chloro-1-hydroxyadamantan-2-yl)(phenyl)methyl)pivalamide], the “ameliorating effect on a depression-like symptom (tail-suspension test and forced swim test) compared with TP-014” value is on record as “higher ameliorating effect on a depression-like symptom than TP-014”.

Source of the values: patent US11608313B2, “Adamantylmethylamine derivative and use thereof as pharmaceutical” (TOHOKU UNIVERSITY, priority 2017, dated 2023).
